Results reported in US20020119995A1, “Inverse thiazolylamide derivatives” (priority 2000, published 2002).
Where two headings read alike, the source gives them in different places.

Experiments:
HSV-1 F = assay: anti-HSV screening test (cytopathogenic effect, fluorescein diacetate readout) in Vero cells, HSV-1 F; format: cell-based; conditions: read-out: IC50 [μM] HSV-1 F/Vero
Protocol: (§1) HSV (HSV-1 Walki, HSV-1F or HSV-2G) was cultivated on Vero cells (ATCC CCL-81) under the following conditions. The cells were grown in M199 medium (5% foetal calf serum, 2 mM glutamine, 100 IU/ml penicillin, 100 μg/ml streptomycin) in cell culture bottles at 37° C. and 5% CO2. The cells were split twice per week, in each case 1:4. For the infection, the medium was removed, the cells were washed with Hank's solution, detached using 0.05% trypsin, 0.02% EDTA (Seromed L2143) and incubated at a density of 4×10^5 cells per ml under the abovementioned conditions for 24 hours. The medium was then removed and the virus solution was added at an m.o.i. of <0.05 in a volume of 2 ml per 175 cm^2 of surface. The medium was incubated under the conditions mentioned for one hour and then made up to a volume of 50 ml per 175 cm^2 bottle. […] The virus was released by freezing (−80° C.) and thawing (37° C.) the cultures twice. Cell debris was removed by centrifugation (300 g, 10 min, 4° C.) and the supernatant was frozen down in aliquots at −80° C.
(§2) The anti-HSV action was determined in a screening test system in 96-well microtitre plates using various cell lines of neuronal, lymphoid and epithelial origin, such as, for example, Vero (kidney cell line of the green monkey), MEF (murine embryonal fibroblasts), HELF (human embryonal fibroblasts), NT2 (human neuronal cell line) or Jurkat (human lymphoid T-cell line).
(§3) The substances (50 mM), dissolved in DMSO (dimethyl sulphoxide), are examined on microtitre plates (for example 96-well MTP) in final concentrations of 250-0.5 μM (micromolar) in two replications (4 substances/plate). In the case of potent substances, the dilutions are continued for several plates up to 0.5 pM (picomolar). Also examined are toxic and cytostatic effects of the substances. After an appropriate dilution of the substances (1:2) on the microtitre plate in medium, a suspension of cells ([…] cells per well) such as, for example, of Vero cells in M199 (medium 199) with 5% foetal calf serum, 2 mM glutamine and optionally 100 IU/ml penicillin and 100 μg/ml streptomycin or of MEF cells in EMEM (Eagle's Minimum Essential Medium) with 10% foetal calf serum, 2 mM glutamine and optionally 100 IU/ml penicillin and 100 μg/ml streptomycin, or of HELF cells in EMEM with 10% foetal calf serum, 2 mM glutamine and optionally 100 IU/ml penicillin and 100 μg/ml streptomycin, or of NT2 and Jurkat cells in DMEM ([…] glucose plus pyridoxin) with 10% foetal calf serum, 2 mM glutamine, 1 mM sodium pyruvate, non-essential amino acids and optionally 100 IU/ml penicillin and 100 μg/ml streptomycin, is added to each well and the cells in the relevant wells are infected with an appropriate amount of virus (HSV-1 F or HSV-2 G having an m.o.i. (multiplicity of infection) of 0.0025 for HELF, Vero and MEF cells and an m.o.i. of 0.1 for NT2 and Jurkat cells). The plates are then incubated at 37° C. in a CO2 incubator (5% CO2) for several days. […] The plates are initially evaluated visually using a microscope and then analysed using a fluorescent dye. To this end, the cell supernatant of all wells of the MTP is aspirated and the wells are filled with 200 μl of PBS wash solution. The PBS is then aspirated and all the wells are filled with 200 μl of fluorescent dye solution (fluorescein diacetate, 10 μg/ml in PBS). After an incubation time of 30-90 min, the test plates are read in a fluorescence detector at an excitation wavelength of 485 nm and an emission wavelength of 538 nm.

HSV-2 G = assay: anti-HSV screening test (cytopathogenic effect, fluorescein diacetate readout) in Vero cells, HSV-2 G; format: cell-based; conditions: read-out: IC50 [μM] HSV-2 G/Vero
Protocol: as §1, §2, §3

HSV-1 = assay: in-vivo action: survival of intranasally HSV-infected mice; design: species or system BALB/cABom strain; conditions: HSV-1, intranasal infection 5×10^4 Pfu, female BALB/cABom mice; treated 3 times per day for 5 days from 6 hours after infection; from survival curves
Protocol: 6-week-old female mice, BALB/cABom strain were obtained from a commercial breeder (Bomholtgard Breeding and Research Centre Ltd.).
The animals were anaesthetized with diethyl ether (Merck) in a sealed glass vessel. 50 μl of a dilution of the virus stock (infection dose 5×10^4 Pfu) were introduced into the nose of the anaesthetized animals using an Eppendorf pipette. In 90-100% of the animals, this infection dose causes death by a generalized infection with prominent respiratory and central-nervous symptoms on average after 5 to 8 days.
6 hours after the infection, the animals were treated with doses of 0.1-100 mg/kg of body mass, 3 times per day, at 7 a.m., 2 p.m. and 7 p.m., for a period of 5 days. The substances were pre-dissolved in DMSO and resuspended in tylose/PBS (Hoechst) (final concentration 1.5% DMSO, 0.5% tylose in PBS).
After the last administration, the animals were monitored further and the time of death was determined.

[1] = Human alphaherpesvirus 1, HSV-1 F, Vero cells, half-maximal fluorescence intensity with respect to the non-infected cell control
[2] = Human alphaherpesvirus 2, HSV-2 G, Vero cells, half-maximal fluorescence intensity with respect to the non-infected cell control

Row | IC50 (HSV-1 F; [1]) [µM] | IC50 (HSV-2 G; [2]) [µM] | SMILES | IC50 (HSV-1 F; Human alphaherpesvirus 1, Vero) [µM] | IC50 (HSV-2 G; Human alphaherpesvirus 2, Vero) [µM] | ED90 (90% of the animals survive at this dose) (HSV-1)
1 | 0.05 | 0.03 | Cc1nc(C(C)C(=O)Nc2ccc(-c3ccccc3)cc2)sc1S(N)(=O)=O (centres unmarked) [Example 1, 2-[5-(Aminosulphonyl)-4-methyl-1,3-thiazol-2-yl]-N-(1,1′-biphenyl-4-yl)-propanamide] |  |  | 
2 | 0.2 | 0.4 | Cc1nc(C(C)C(=O)Nc2ccc(-c3ccccn3)cc2)sc1S(N)(=O)=O (centres unmarked) [Example 2, 2-[5-(Aminosulphonyl)-4-methyl-1,3-thiazol-2-yl]-N-[4-(2-pyridinyl)-phenyl]propanamide] |  |  | 
3 |  |  | Cc1nc(C(C)C(=O)Nc2ccc(-c3cc(F)ccc3F)cc2)sc1S(N)(=O)=O (centres unmarked) [Example 3, 2-[5-(Aminosulphonyl)-4-methyl-1,3-thiazol-2-yl]-N-(2′,5′-difluoro-1,1′-biphenyl-4-yl)propanamide] | 0.05 | 0.01 | about 3 mg/kg
4 | 0.75 | 0.75 | CCOc1ccc(NC(=O)C(C)c2nc(C)c(S(N)(=O)=O)s2)cc1 (centres unmarked) [Example 4, 2-[5-(Aminosulphonyl)-4-methyl-1,3-thiazol-2-yl]-N-(4-ethoxyphenyl)-propanamide] |  |  | 
5 | 0.1 | 0.06 | CNS(=O)(=O)c1sc(C(C)C(=O)Nc2ccc(-c3ccccc3)cc2)nc1C (centres unmarked) [Example 5, N-(1,1′-Biphenyl-4-yl)-2-{4-methyl-5-[(methylamino)sulphonyl]-1,3-thiazol-2-yl}propanamide] |  |  | 
